One may read the IC50 as the concentration that inhibits the measured activity by half.

Test [1] deals with Mus musculus. As to the kind of experiment: Inhibition of methacholine-induced bronchoconstriction in Balb/c mouse at 5 ug administered intranasally after 48 hrs. The test is classed as functional.
In test [2] the test system is Mus musculus. As to the kind of experiment: Inhibition of methacholine-induced bronchoconstriction in Balb/c mouse at 5 ug administered intranasally after 24 hrs. The test is classed as functional.
Test [3] concerns Mus musculus. The test can be described thus: Inhibition of methacholine-induced bronchoconstriction in Balb/c mouse at 5 ug administered intranasally after 5 hrs. The test is classed as functional.
Test [4] deals with T1, Muscarinic acetylcholine receptor M1 (Homo sapiens, UniProt P11229).
T1 sequence (P11229 whole entry): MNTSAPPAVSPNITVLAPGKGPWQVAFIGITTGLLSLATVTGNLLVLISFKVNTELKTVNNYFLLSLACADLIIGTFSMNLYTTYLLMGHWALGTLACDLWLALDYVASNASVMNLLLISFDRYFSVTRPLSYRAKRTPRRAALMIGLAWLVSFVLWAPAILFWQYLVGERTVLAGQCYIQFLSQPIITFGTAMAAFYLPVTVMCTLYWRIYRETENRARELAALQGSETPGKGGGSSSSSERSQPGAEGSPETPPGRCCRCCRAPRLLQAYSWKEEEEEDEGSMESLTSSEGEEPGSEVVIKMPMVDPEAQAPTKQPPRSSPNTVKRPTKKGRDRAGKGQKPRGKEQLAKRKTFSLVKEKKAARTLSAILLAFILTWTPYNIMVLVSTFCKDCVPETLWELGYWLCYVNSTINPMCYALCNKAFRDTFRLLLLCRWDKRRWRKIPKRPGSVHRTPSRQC
As to the kind of experiment: Antagonist activity at human muscarinic M1 receptor expressed in CHO cells assessed as inhibition of acetylcholine-induced calcium mobilization by FLIPR assay. The test is classed as functional, cell-based.

Test [5] deals with T2, Muscarinic acetylcholine receptor M2 (Homo sapiens, UniProt P08172).
T2 sequence (P08172 whole entry): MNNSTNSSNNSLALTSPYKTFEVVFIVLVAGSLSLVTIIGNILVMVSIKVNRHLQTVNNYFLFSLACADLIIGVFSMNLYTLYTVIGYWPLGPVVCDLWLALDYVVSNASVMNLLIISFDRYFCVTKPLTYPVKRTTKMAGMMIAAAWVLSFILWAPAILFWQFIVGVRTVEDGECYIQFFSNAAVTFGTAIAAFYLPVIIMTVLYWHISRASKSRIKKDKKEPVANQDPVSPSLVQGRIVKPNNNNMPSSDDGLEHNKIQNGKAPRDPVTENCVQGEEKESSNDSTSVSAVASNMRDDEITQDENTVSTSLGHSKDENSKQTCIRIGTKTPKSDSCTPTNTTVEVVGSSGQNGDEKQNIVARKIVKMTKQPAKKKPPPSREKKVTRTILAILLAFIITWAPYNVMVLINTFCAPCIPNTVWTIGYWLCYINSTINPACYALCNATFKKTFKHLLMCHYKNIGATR
As to the kind of experiment: Antagonist activity at human muscarinic M2 receptor expressed in CHO cells assessed as inhibition of acetylcholine-induced calcium mobilization by FLIPR assay. The test is classed as functional, cell-based. For orientation: A change in cytosolic calcium serves as a functional read-out for many receptors and channels.

Test [6] has as its target Muscarinic acetylcholine receptor M3 (Homo sapiens, UniProt P20309). As to the kind of experiment: Antagonist activity at human muscarinic M3 receptor expressed in CHO cells assessed as inhibition of acetylcholine-induced calcium mobilization by FLIPR assay. The test is classed as functional, cell-based.

Molecules are shown by their SMILES. Some results are limits rather than exact numbers.

Sequence of Muscarinic acetylcholine receptor M3 (P20309 whole entry): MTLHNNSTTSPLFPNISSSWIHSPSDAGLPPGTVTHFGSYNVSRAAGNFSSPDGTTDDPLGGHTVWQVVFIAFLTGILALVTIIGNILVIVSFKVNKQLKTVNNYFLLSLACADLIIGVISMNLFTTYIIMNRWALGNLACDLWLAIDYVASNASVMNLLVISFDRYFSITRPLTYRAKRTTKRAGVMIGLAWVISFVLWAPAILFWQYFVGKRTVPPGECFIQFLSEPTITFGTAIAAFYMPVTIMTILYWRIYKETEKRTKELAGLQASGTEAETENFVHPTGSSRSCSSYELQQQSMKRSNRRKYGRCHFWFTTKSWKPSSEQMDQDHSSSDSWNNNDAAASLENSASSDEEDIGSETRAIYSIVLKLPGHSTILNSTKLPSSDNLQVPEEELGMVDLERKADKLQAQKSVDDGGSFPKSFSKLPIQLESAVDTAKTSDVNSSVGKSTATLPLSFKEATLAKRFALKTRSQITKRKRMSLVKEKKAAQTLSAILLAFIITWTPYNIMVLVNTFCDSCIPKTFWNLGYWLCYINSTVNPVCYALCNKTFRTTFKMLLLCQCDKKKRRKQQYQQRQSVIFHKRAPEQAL

`CC(C)OC(=O)c1ccc(NC(=O)N[C@@H](Cc2ccc(O)cc2)C(=O)N[C@H]2CCC[N+](C)(Cc3ccc(Cl)cc3)C2)cc1` (some centres undefined): the “inhibition (INH)” value in test [1] came to 0%; in test [2], 38%; in test [3] it was 94%.
With `Cc1c[n+]2cc(CNC(=O)[C@H](Cc3ccc(O)cc3)NC(=O)Nc3ccc(C(=O)OC(C)C)cc3)n(Cc3ccc(C(F)(F)F)cc3)c2s1.O=C([O-])C(F)(F)F`, the “inhibition (INH)” value is on record as 12% in test [2] and 89% in test [3].
Consider `CC(C)OC(=O)c1ccc(NC(=O)N[C@@H](Cc2ccc(O)cc2)C(=O)NCCC[N+](C)(C)Cc2ccc(Cl)cc2)cc1`, for which the figures for the IC50 in test [4], in test [5] and in test [6] were 0.757 µM, 0.178 µM and 0.197 µM, respectively.
For `CC(C)OC(=O)c1ccc(NC(=O)N[C@@H](Cc2ccc(O)cc2)C(=O)NCC(C)(C)C[N+](C)(C)Cc2ccc(Cl)cc2)cc1`, in that order: 0.476 µM, 0.0876 µM and under 0.005 µM.
For `CC(C)OC(=O)c1ccc(NC(=O)N[C@@H](Cc2ccc(O)cc2)C(=O)N2CC[N+](C)(Cc3ccc4c(c3)OCO4)CC2)cc1`, in that order: over 3.3 µM, 0.427 µM and 0.0102 µM.
The corresponding values for `CC(C)OC(=O)c1ccc(NC(=O)N[C@@H](Cc2ccc(O)cc2)C(=O)N2CC[N+](C)(CC3CCCCC3)CC2)cc1` are 2.5 µM, 0.191 µM and 0.0502 µM.
Regarding `CC(C)OC(=O)c1ccc(NC(=O)N[C@@H](Cc2ccc(O)cc2)C(=O)N2CC[N+](Cc3ccc(Cl)cc3)(C(C)C)CC2)cc1`, the values for the IC50 in test [4], in test [5] and in test [6] were 0.893 µM, 0.0979 µM and 0.0275 µM, respectively.
For the compound `CC(C)OC(=O)c1ccc(NC(=O)N[C@@H](Cc2ccc(O)cc2)C(=O)N2CC[N+](Cc3ccc(Cl)cc3)(CC3CCCCC3)CC2)cc1`, the results for the IC50 in test [4], in test [5] and in test [6] were 0.141 µM, 0.0588 µM and under 0.005 µM, respectively.
The corresponding values for `CC(C)OC(=O)c1ccc(NC(=O)N[C@@H](Cc2ccc(O)cc2)C(=O)N2CC[N+](Cc3ccc(Cl)cc3)(CC3CCc4ccccc4C3)CC2)cc1` (some centres undefined) are 0.462 µM, 0.0412 µM and under 0.005 µM.
The corresponding values for `CC(C)OC(=O)c1ccc(NC(=O)N[C@@H](Cc2ccc(O)cc2)C(=O)N2CC[N+](C)(CCc3ccccc3)CC2)cc1` are 1.35 µM, 0.86 µM and under 0.005 µM.
Take `CC(C)OC(=O)c1ccc(NC(=O)N[C@@H](Cc2ccc(O)cc2)C(=O)N(C)Cc2n(C)cc[n+]2C)cc1`: the IC50 in test [4], in test [5] and in test [6] was over 3.3 µM in each case.
Turning to `CC(C)OC(=O)c1ccc(NC(=O)N[C@@H](Cc2ccc(O)cc2)C(=O)N(C)Cc2n(C)cc[n+]2Cc2ccc(Cl)cc2)cc1`, the results for the IC50 in test [4], in test [5] and in test [6] were over 3.3 µM, 0.999 µM and 0.392 µM, respectively.
The corresponding values for `CC(C)OC(=O)c1ccc(NC(=O)N[C@@H](Cc2ccc(O)cc2)C(=O)NCc2n(Cc3ccc(Cl)cc3)cc[n+]2Cc2ccc(Cl)cc2)cc1` are 0.327 µM, 0.181 µM and 0.0519 µM.
For `Cc1csc2n(C)c(CNC(=O)[C@H](Cc3ccc(O)cc3)NC(=O)Nc3ccc(C(=O)OC(C)C)cc3)c[n+]12`, in that order: under 0.005 µM, under 0.005 µM and under 0.005 µM.
`Cc1csc2n(Cc3ccc(Cl)cc3)c(CNC(=O)[C@H](Cc3ccc(O)cc3)NC(=O)Nc3ccc(C(=O)OC(C)C)cc3)c[n+]12`: the IC50 in test [4], in test [5] and in test [6] was under 0.005 µM throughout.
Turning to `Cc1c[n+]2cc(CNC(=O)[C@H](Cc3ccc(O)cc3)NC(=O)Nc3ccc(C(=O)OC(C)C)cc3)n(C)c2s1`, the IC50 in test [4], in test [5] and in test [6] was under 0.005 µM throughout.
As for `CC(C)OC(=O)c1ccc(NC(=O)N[C@@H](Cc2ccc(O)cc2)C(=O)N2CCC[C@H]([N+](C)(C)Cc3ccc(Cl)cc3)C2)cc1`, the IC50 is 1.12 µM in test [4], 0.105 µM in test [5] and 0.0453 µM in test [6].
For `CC(C)OC(=O)c1ccc(NC(=O)N[C@@H](Cc2ccc(O)cc2)C(=O)N2CCC([N+]3(Cc4ccc(Cl)cc4)CCCC3)CC2)cc1`, in that order: 0.882 µM, 0.0946 µM and 0.0689 µM.
As to `CC[N+]1(C2CCN(C(=O)[C@H](Cc3ccc(O)cc3)NC(=O)Nc3ccc(C(=O)OC(C)C)cc3)CC2)CCCC1`, the IC50 was over 3.3 µM in test [4], 0.556 µM in test [5] and 0.579 µM in test [6].
Take `CC(C)OC(=O)c1ccc(NC(=O)N[C@@H](Cc2ccc(O)cc2)C(=O)NCC[N+](C)(Cc2ccc(Cl)cc2)Cc2ccc(Cl)cc2)cc1`: the IC50 in test [4] was determined as 0.379 µM; in test [5], 0.405 µM; in test [6] it was 0.0704 µM.
For `CC(C)OC(=O)c1ccc(NC(=O)N[C@@H](Cc2ccc(O)cc2)C(=O)NCC[N+](C)(C)Cc2ccc(Cl)cc2)cc1`, in that order: 1.43 µM, 0.549 µM and 0.143 µM.
The corresponding values for `CC[N+](CC)(CCNC(=O)[C@H](Cc1ccc(O)cc1)NC(=O)Nc1ccc(C(=O)OC(C)C)cc1)Cc1ccc(Cl)cc1` are 0.584 µM, 0.311 µM and 0.223 µM.
On to `CC(C)OC(=O)c1ccc(NC(=O)N[C@@H](Cc2ccc(O)cc2)C(=O)NCC[N+](C)(Cc2ccc3ccccc3c2)Cc2ccc3ccccc3c2)cc1`, for which the values for the IC50 in test [4], in test [5] and in test [6] were 0.948 µM, 0.015 µM and 0.0822 µM, respectively.
Turning to `CC(C)OC(=O)c1ccc(NC(=O)N[C@@H](Cc2ccc(O)cc2)C(=O)NCC[N+](C)(C)C23CC4CC(CC(C4)C2)C3)cc1`, the IC50 in test [4] amounted to 0.0131 µM; in test [5], 0.0131 µM; in test [6] it was 0.0061 µM.
As to `CC(C)OC(=O)c1ccc(NC(=O)N[C@@H](Cc2ccc(O)cc2)C(=O)NCC[N+]2(Cc3ccc(Cl)cc3)CCCC2)cc1`, the results for the IC50 in test [4], in test [5] and in test [6] were 0.418 µM, 0.108 µM and 0.0449 µM, respectively.
For `CC(C)OC(=O)c1ccc(NC(=O)N[C@@H](Cc2ccc(O)cc2)C(=O)NCC[N+]2(Cc3ccc(Cl)cc3)CCCCC2)cc1`, in that order: 0.199 µM, 0.0825 µM and 0.0334 µM.
For `CC(C)OC(=O)c1ccc(NC(=O)N[C@@H](Cc2ccc(O)cc2)C(=O)NCC[N+]2(C)CCCCCC2)cc1`, in that order: over 3.3 µM, 0.328 µM and 0.159 µM.
On to `CC(C)OC(=O)c1ccc(NC(=O)N[C@@H](Cc2ccc(O)cc2)C(=O)NCC[N+](C)(C(C)C)C(C)C)cc1`, for which the figures for the IC50 in test [4], in test [5] and in test [6] were over 3.3 µM, 0.337 µM and 0.237 µM, respectively.
On to `CC(C)OC(=O)c1ccc(NC(=O)N[C@@H](Cc2ccc(O)cc2)C(=O)N(CC[N+](C)(C)C)Cc2ccccc2)cc1`, for which the IC50 in test [4], in test [5] and in test [6] was over 3.3 µM each time.
`CC(C)OC(=O)c1ccc(NC(=O)N[C@@H](Cc2ccc(O)cc2)C(=O)NCCC[N+](C)(C)Cc2ccc3ccccc3c2)cc1`: the IC50 amounted to 0.734 µM in test [4], 0.411 µM in test [5] and 0.417 µM in test [6].
The corresponding values for `CC(C)OC(=O)c1ccc(NC(=O)N[C@@H](Cc2ccc(O)cc2)C(=O)N2CCC[C@@H]([N+](C)(C)Cc3ccc(Cl)cc3)C2)cc1` are 1.9 µM, 0.832 µM and 0.0133 µM.
Consider `Cc1cn2cc(CNC(=O)[C@H](Cc3ccc(O)cc3)NC(=O)Nc3ccc(C(=O)OC(C)C)cc3)[n+](Cc3ccc4ccccc4c3)c2s1.O=C([O-])C(F)(F)F`, for which the results for the “inhibition (INH)” value in test [1] and in test [3] were 69% and 78%, respectively.

(Values after ChEMBL document CHEMBL2203018, “Tyrosine urea muscarinic acetylcholine receptor antagonists: achiral quaternary ammonium groups” (Bioorg Med Chem Lett, 2012).)
